Experimental findings from ChEMBL document CHEMBL3044530, “A simple synthesis of trans-3,4,5-trimethoxycinnamamides and evaluation of their biologic activity” (2013) are described below.

Common to all, as to type: functional
In one assay the test system is Mus musculus. The experiment in a line: Antinarcotic activity in morphine-dependent C57BL/6 Mus musculus (mouse) assessed as decrease in naloxane-induced jumping frquency at 20 mg/kg, ip administered QD at 30 min prior to morphine-injection for 7 days followed by naloxane-challenge at 6 hr after last morphine-injection relative to control.
In assay [1] the test system is Radical scavenging activity. The experiment in a line: Antioxidant activity assessed as DPPH radical scavenging activity at 1 mM after 25 min by spectrophotometric analysis.
The next assay relates to Cortical neurone. The experiment in a line: Neuroprotective activity in ICR Mus musculus (mouse) cortical neurons assessed as protection against glutamate-induced toxicity at 5 to 20 uM after 24 hr by LDH assay.

The structures appear in SMILES notation. Activity calls are given as the source filed them. No cut-off for these calls is given here.

`COc1cc(/C=C/C(=O)O)cc(OC)c1OC`: the outcome in the assay on Mus musculus was Active.
On to `COc1cc(/C=C/C(=O)NCCO)cc(OC)c1OC`, for which the Activity in assay [1] was > 20%; in the assay with Mus musculus (route intraperitoneal), 80%. Further, the outcome in the assay on Cortical neurone was Active.
`COc1cc(/C=C/C(=O)NCCCN2CCCC2=O)cc(OC)c1OC`: the figures for the Activity (in assay [1]; with Mus musculus (route intraperitoneal)) were > 20% and 80%, respectively.
Consider `COc1cc(/C=C/C(=O)N2CCN(C(=O)/C=C/c3cc(OC)c(OC)c(OC)c3)CC2)cc(OC)c1OC`, for which the Activity in the assay on Mus musculus (route intraperitoneal) was determined as 80%.
Consider `COc1cc(/C=C/C(=O)N2CCN(C(=O)c3ccccc3)CC2)cc(OC)c1OC`, for which the Activity in assay [1] is > 20%; with Mus musculus (route intraperitoneal) it was 80%. In addition, the outcome with Cortical neurone was Active.
For the compound `COc1cc(/C=C/C(=O)N2CCOCC2)cc(OC)c1OC`, the figures for the Activity (in assay [1]; with Mus musculus (route intraperitoneal)) were > 20% and 80%, respectively.
As for `COc1cc(/C=C/C(=O)N2CCSCC2)cc(OC)c1OC`, the Activity in assay [1] is > 20%; with Mus musculus (route intraperitoneal) it was 80%. Moreover, the outcome in the assay on Cortical neurone was Active.
